Values quoted from earlier work in patent US20070264370A1, “Composition and methods for the treatment of joint pain using Angelica gigas Nakai extract and powder as combined with Glucosamine Sulfate, or Chondroitin Sulfate and HCL, or MSM, or aspirin, or Celedrin, and as combinations thereof in powder, pill, capsule, spray, liquid, and gelcap form” (priority 2006, published 2007).

Settings: in mammal; oral administration in rats (Kim et al. 2003)

Q: With `CC1(C)Oc2cc3oc(=O)ccc3cc2C[C@@H]1O` [decursinol, Decursinol] as the compound, how does the “elimination half life (T1/2)” value read?
A: about 3 hours
